Experimental data: patent publication US20260217708A1, “FUSED BENZAZEPINE DERIVATIVES FOR USE IN THE TREATMENT OF CANCER AND EPILEPSY” (UCB BIOPHARMA SRL, priority 2023, published 2026)

How the values were obtained:
[1] = target: T1, system Xc^− (Homo sapiens, UniProt Q9UPY5); assay: [^14C]L-Cystine uptake assay; format: cell-based; design: endogenous in cells; host or cells: H4 cells; conditions: H4 cells, sodium-free HEPES buffer, 0.5 μM L-[14C]Cystine and 4.5 μM L-Cystine, 1 hour at 37° C.; for IC50: read-out: pIC50 [^14C] L-Cystine uptake assay (converted)
T1 sequence (Q9UPY5 1-501): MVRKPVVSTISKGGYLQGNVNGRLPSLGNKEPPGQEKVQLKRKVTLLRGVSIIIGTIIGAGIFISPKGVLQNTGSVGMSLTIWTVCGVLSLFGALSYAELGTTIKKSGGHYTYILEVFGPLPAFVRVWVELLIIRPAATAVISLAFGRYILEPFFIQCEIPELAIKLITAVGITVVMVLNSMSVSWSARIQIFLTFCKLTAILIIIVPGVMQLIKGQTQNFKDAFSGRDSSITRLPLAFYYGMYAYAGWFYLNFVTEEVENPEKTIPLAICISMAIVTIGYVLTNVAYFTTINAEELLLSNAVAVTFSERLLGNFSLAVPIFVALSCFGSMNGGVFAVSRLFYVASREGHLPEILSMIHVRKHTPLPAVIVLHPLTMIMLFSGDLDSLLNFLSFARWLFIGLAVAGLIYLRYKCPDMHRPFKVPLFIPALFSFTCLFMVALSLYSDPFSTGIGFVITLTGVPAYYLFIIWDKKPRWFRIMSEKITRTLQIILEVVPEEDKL
T1 sequence (P08195 1-529 partner): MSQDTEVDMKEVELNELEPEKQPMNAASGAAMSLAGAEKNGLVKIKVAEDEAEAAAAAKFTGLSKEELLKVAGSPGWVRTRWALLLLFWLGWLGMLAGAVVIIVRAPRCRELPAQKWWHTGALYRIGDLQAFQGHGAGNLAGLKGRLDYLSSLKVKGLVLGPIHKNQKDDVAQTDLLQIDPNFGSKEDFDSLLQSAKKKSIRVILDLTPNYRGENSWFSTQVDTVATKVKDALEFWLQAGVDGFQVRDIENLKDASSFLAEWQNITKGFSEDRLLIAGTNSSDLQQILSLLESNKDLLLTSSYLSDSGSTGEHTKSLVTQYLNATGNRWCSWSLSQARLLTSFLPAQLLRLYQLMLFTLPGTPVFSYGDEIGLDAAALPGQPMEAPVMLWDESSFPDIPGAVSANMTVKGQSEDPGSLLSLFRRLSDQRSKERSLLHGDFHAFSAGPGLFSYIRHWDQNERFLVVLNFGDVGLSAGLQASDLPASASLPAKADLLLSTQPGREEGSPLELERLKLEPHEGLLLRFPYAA
In short: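 H4 cells at 5×10^4 cells/well in sodium-free HEPES buffer were preincubated 15 min with compounds (1% DMSO). Uptake of 0.5 μM [14C]L-cystine plus 4.5 μM unlabelled L-cystine ran 1 hour at 37° C on scintillating plates. IC50 was set between 1% DMSO and 50 μM Erastin controls and expressed as pIC50.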

[2] = target: T1, system Xc^−; assay: Cystine-induced glutamate release assay; format: cell-based; design: endogenous in cells; host or cells: H4 cells; conditions: H4 cells, sodium-free HEPES buffer, 50 μM L-Cystine, 2 hours, Amplex Red glutamate readout; for IC50: read-out: pIC50 Cystine-induced glutamate release assay (converted)
In short: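 H4 cells in sodium-free HEPES buffer (pH 7.4), 2 days after plating; glutamate release induced with 50 μM L-cystine plus compound (1% DMSO), 2 h at 37 °C. Supernatant glutamate measured by Amplex Red fluorescence; IC50/pIC50 derived between 1% DMSO and 50 μM erastin controls.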

| Compound | IC50 [1] | IC50 [2] | pIC50 [^14C] L-Cystine uptake assay [1] | pIC50 Cystine-induced glutamate release assay [2] |
| --- | --- | --- | --- | --- |
| CC1C(=O)N(CC(=O)Nc2ccc(C(F)F)cc2)c2cc(Cl)cc(F)c2-c2cccnc21 (single isomer, unassigned) [#332, 2-[9-chloro-11-fluoro-5-methyl-6-oxo-5H-pyrido[2,3-d][1]benzazepin-7-yl]-N-[4-(difluoromethyl)phenyl]acetamide] | < 15.8 nM | 15.8 to 39.8 nM |  |  |
| CC1C(=O)N(CC(=O)Nc2ccc(Cl)c(F)c2)c2cc(C#N)ccc2-c2cccnc21 (stereo not shown) [#311, N-(4-chloro-3-fluoro-phenyl)-2-(9-cyano-5-methyl-6-oxo-5H-pyrido[2,3-d][1]benzazepin-7-yl)acetamide] | 39.8 to 100 nM | < 15.8 nM |  |  |
| Cc1cc2c(c(F)n1)-c1cccnc1[C@@H](C)C(=O)N2CC(=O)Nc1ccc(C(F)F)cc1 [#151] | < 15.8 nM | < 15.8 nM |  |  |
| Cc1cc2c(c(=O)n1C)-c1sccc1C(C)C(=O)N2CC(=O)Nc1ccc(C(F)F)cc1 (stereo not shown) [#361, N-[4-(difluoromethyl)phenyl]-2-(7,12,13-trimethyl-8,14-dioxo-3-thia-9,13-diazatricyclo[8.4.0.0^2,6]tetradeca-1(10),2(6),4,11-tetraen-9-yl)acetamide] | < 15.8 nM | 15.8 to 39.8 nM |  |  |
| CC1C(=O)N(CC(=O)Nc2ccc(Cl)c(F)c2)c2cc(C#N)cc(F)c2-c2cccnc21 (single isomer, unassigned) [#310, N-(4-chloro-3-fluoro-phenyl)-2-[9-cyano-11-fluoro-5-methyl-6-oxo-5H-pyrido[2,3-d][1]benzazepin-7-yl]acetamide] | < 15.8 nM | < 15.8 nM |  |  |
| Cc1cc2c(c(C(F)F)n1)-c1cccnc1C(C)C(=O)N2CC(=O)Nc1ccc(Cl)c(F)c1 (single isomer, unassigned) [#302, N-(4-chloro-3-fluoro-phenyl)-2-[3-(difluoromethyl)-5,10-dimethyl-9-oxo-4,8,12-triazatricyclo[9.4.0.0^2,7]pentadeca-1(15),2,4,6,11,13-hexaen-8-yl]acetamide] | 15.8 to 39.8 nM | 39.8 to 100 nM |  |  |
| Cc1cc2c(c(=O)o1)-c1ccccc1C(C)C(=O)N2CC(=O)Nc1ccc(C(F)F)cc1 (single isomer, unassigned) [#359, N-[4-(difluoromethyl)phenyl]-2-[3,7-dimethyl-1,6-dioxo-7H-pyrano[4,3-d][3]benzazepin-5-yl]acetamide] | 15.8 to 39.8 nM | 15.8 to 39.8 nM |  |  |
| O=C(CN1C(=O)Cc2ncccc2-c2c1cc(N1CC(F)(F)C1)nc2F)Nc1ccc(C(F)F)cc1 [#295, 2-[5-(3,3-difluoroazetidin-1-yl)-3-fluoro-9-oxo-4,8,12-triazatricyclo[9.4.0.0^2,7]pentadeca-1(15),2,4,6,11,13-hexaen-8-yl]-N-[4-(difluoromethyl)phenyl]acetamide] | < 15.8 nM | < 15.8 nM |  |  |
| Cc1cc2c(c(Cl)n1)-c1ccccc1CC(=O)N2CC(=O)Nc1ccc(C(F)(F)F)cc1 (single isomer, unassigned) [#189, Atropisomer aR or aS of 2-(1-chloro-3-methyl-6-oxo-7H-pyrido[4,3-d][3]benzazepin-5-yl)-N-[4-(trifluoromethyl)phenyl]acetamide] |  |  | D (plC50 > about 7.80) | D (plC50 > about 7.80) |
| COc1cc2c(c(F)n1)-c1cc(F)cnc1C(C)C(=O)N2CC(=O)Nc1ccc(Cl)c(F)c1 (single isomer, unassigned) [#403, N-(4-chloro-3-fluoro-phenyl)-2-[3,14-difluoro-5-methoxy-10-methyl-9-oxo-4,8,12-triazatricyclo[9.4.0.0^2,7]pentadeca-1(11),2(7),3,5,12,14-hexaen-8-yl]acetamide] | < 15.8 nM | < 15.8 nM |  |  |

Now from value to compound, other results behind:

| IC50 [1] | IC50 [2] | Compound | pIC50 [^14C] L-Cystine uptake assay [1] | pIC50 Cystine-induced glutamate release assay [2] |
| --- | --- | --- | --- | --- |
| 15.8 to 39.8 nM | < 15.8 nM | Cc1cc2c(c(Cl)n1)-c1cccnc1C(F)C(=O)N2CC(=O)Nc1ccc(C(F)F)cc1 (single isomer, unassigned) [#223, Enantiomer (10R) or (10S) of 2-[3-chloro-10-fluoro-5-methyl-9-oxo-4,8,12-triazatricyclo[9.4.0.0^2,7]pentadeca-1(11),2(7),3,5,12,14-hexaen-8-yl]-N-[4-(difluoromethyl)phenyl]acetamide] |  |  |
| < 15.8 nM | 15.8 to 39.8 nM | Cc1cc2c(c(Cl)n1)-c1ccnnc1C(C)C(=O)N2CC(=O)Nc1ccc(C(F)(F)F)cc1 (stereo not shown) [#173, 2-(3-chloro-5,10-dimethyl-9-oxo-4,8,12,13-tetrazatricyclo[9.4.0.0^2,7]pentadeca-1(11),2(7),3,5,12,14-hexaen-8-yl)-N-[4-(trifluoromethyl)phenyl]acetamide] |  |  |
| 15.8 to 39.8 nM | 15.8 to 39.8 nM | Cc1cc2c(n(C)c1=O)-c1cccnc1C(C)C(=O)N2CC(=O)Nc1ccc(C(F)(F)F)cc1 (stereo not shown) [#119, N-[4-(trifluoromethyl)phenyl]-2-(3,5,10-trimethyl-4,9-dioxo-3,8,12-triazatricyclo[9.4.0.0^2,7]pentadeca-1(11),2(7),5,12,14-pentaen-8-yl)acetamide] |  |  |
| 15.8 to 39.8 nM | 39.8 to 100 nM | Cc1cc2c(cn1)-c1cc(F)ccc1CC(=O)N2CC(=O)Nc1ccc(C(F)(F)F)cc1 [#33, 2-(10-fluoro-3-methyl-6-oxo-7H-pyrido[4,3-d][3]benzazepin-5-yl)-N-[4-(trifluoro-methyl)phenyl] acetamide] |  |  |
| < 15.8 nM | 15.8 to 39.8 nM | Cc1cc2c(c(C)n1)-c1ccc(Cl)cc1CC(=O)N2CC(=O)Nc1ccc(C(F)(F)F)cc1 [#62, 2-(9-chloro-1,3-dimethyl-6-oxo-7H-pyrido[4,3-d][3]benzazepin-5-yl)-N-[4-(trifluoromethyl)phenyl]acetamide] |  |  |
| 39.8 to 100 nM | 100 to 501 nM | Cc1cc2c(cc1C)N(CC(=O)Nc1ccc(C(F)(F)F)cc1)C(=O)Cc1cncnc1-2 [#9, 2-(9,10-dimethyl-6-oxo-5H-pyrimido[5,4-d][1]benzazepin-7-yl)-N-[4-(trifluoromethyl)phenyl]acetamide] |  |  |
| < 15.8 nM | < 15.8 nM | Cc1cc2c(c(Cl)n1)-c1cccnc1[C@@H](C)C(=O)N2CC(=O)Nc1ccc(C(F)(F)F)cc1 (single isomer, unassigned) [#197, Enantiomer (10R) or (10S) of 2-[3-chloro-5,10-dimethyl-9-oxo-4,8,12-triazatricyclo[9.4.0.0^2,7]pentadeca-1(11),2,4,6,12,14-hexaen-8-yl]-N-[4-(trifluoromethyl)phenyl]acetamide] |  |  |
| < 15.8 nM | 15.8 to 39.8 nM | CO[C@H]1C(=O)N(CC(=O)Nc2ccc(C(F)(F)F)cc2)c2cc(C)nc(Cl)c2-c2cccnc21 (single isomer, unassigned) [#210, Enantiomer (10S) or (10R) of 2-[3-chloro-10-methoxy-5-methyl-9-oxo-4,8,12-triazatricyclo[9.4.0.0^2,7]pentadeca-1(11),2(7),3,5,12,14-hexaen-8-yl]-N-[4-(trifluoromethyl)phenyl]acetamide] |  |  |
| < 15.8 nM | 15.8 to 39.8 nM | Cc1cc2c(c(Cl)n1)-c1cccnc1C(O)C(=O)N2CC(=O)Nc1ccc(C(F)(F)F)cc1 (stereo not shown) [#379, 2-(3-chloro-10-hydroxy-5-methyl-9-oxo-4,8,12-triazatricyclo[9.4.0.0^2,7]pentadeca-1(15),2(7),3,5,11,13-hexaen-8-yl)-N-[4-(trifluoromethyl)phenyl]acetamide] |  |  |
| 15.8 to 39.8 nM | 39.8 to 100 nM | Cc1nc(C#N)cc2c1-c1cccnc1CC(=O)N2CC(=O)Nc1ccc(C(F)(F)F)cc1 [#167, 2-(5-cyano-3-methyl-9-oxo-4,8,12-triazatricyclo[9.4.0.0^2,7]pentadeca-1(11),2(7),3,5,12,14-hexaen-8-yl)-N-[4-(trifluoromethyl)phenyl]acetamide] |  |  |
